The values below come from article PMC8414802, “Hair Cell Generation in Cochlear Culture Models Mediated by Novel γ-Secretase Inhibitors” (Frontiers in Cell and Developmental Biology, 2021).

The nature of series [1]: Inner ear pharmacokinetics after transtympanic administration (perilymph, plasma; LC-MS/MS). The series is classed as in vivo, guinea pig. As for the experimental part:
Female albino Hartley guinea pigs, 250 g, from Charles River (France), housed in macrolon cages (2/cage; Innocage Rat Static-Innovive, Paris) with filter air, were maintained at 22 ± 2°C on a 12-h light cycle with standard A04C (UAR) diet and water “ad libitum.” Lgr5-GFP mice containing an EGFP-IRES-CreERT2 knock-in allele at the Lgr5 locus were obtained from the Jackson Labs (Stock 008875, C57BL/6J/RccHsd background). Atoh1-nGFP transgenic mice (C57Bl/6J background) were from Jane Johnson ([Lumpkin et al., 2003]). Wistar rats were obtained from Charles River.
γ-secretase inhibitors pharmacokinetic studies tested CPD3, CPD8 (Eli Lilly) or LY411575 (Stemcell Technologies) each formulated at 3.4 mg/ml in the following vehicles, 10% Poloxamer 338 (Sigma), 20% Poloxamer 338, 70% PEG400 (Sigma) or 1% hyaluronic acid (HA-700; Lifecore, Chaska, MN, United States) all prepared with PBS (pH 6.2). A single 70 μl injection of the formulated compound (total dose, 870 μg/kg) was delivered to the middle ear space of isoflurane-anesthetized guinea pigs by transtympanic administration. Perilymph from treated animals (perilymph volumes, >2 μl) was collected at time points up to 48 h post-administration (CILcare, Montpellier, France). Briefly, concentrations of each compound in perilymph and plasma, as well as controls prepared in artificial perilymph, were measured by LC-MS/MS on an AB Sciex, API 4000 mass spectrometer using an Onyx C18 5 μm 50^∗2.0 mm separation column (Oroxcell, Romainville, France).
To verify this, in vivo compound concentrations were measured in perilymph of guinea pigs after intratympanic delivery of GSIs into the middle ear. Initially, four vehicle formulations, with different physical properties, were tested, poloxamer 338 (POX; at 10% or 20%), hyaluronic acid (HA), or polyethylene glycol 400 (PEG). For this comparison only one GSI was prepared in each formulation (CPD3, 3.4 mg/ml) and a single dose was injected into the middle ear. Perilymph and plasma were sampled for 48 h (Figure 1D). […] Next, using only 10% POX as vehicle, inner ear adsorption was compared between CPD3, CPD8, and LY411575 by transtympanic injections (Figure 1D, inset). […] Each compound achieved levels several folds above their respective IC50s. The mean maximal perilymph concentration of CPD3 at 0.5 h post-dosing was 85,489 ng/ml (183 μM), then declined at 1 h to 12,928 ng/ml (27.7 μM), and at 6 h to 12,652 ng/ml (27.1 μM). GSIs in plasma samples were not detected (data not shown).

Series [2] deals with hair cells in rat OC explants exposed to S. pneumoniae. In words: OC explants after S. pneumoniae-induced damage. The series is classed as cell-based. As for the experimental part:
To induce ototoxic damage, medium was removed from the OC cultures on the day after dissection and either 200 μM sisomicin (Sigma) in full otic medium, or 10^8 cfu/ml Streptococcus pneumoniae (described below) in ampicillin-free and FBS-free otic medium were added under the transwell membrane (lower compartment) of the cultivation system. After 2 h of exposure to the ototoxic insult, OCs were carefully washed 3 times and culture was continued for 4 days in fresh full otic medium.
A clinical isolate of S. pneumoniae, serotype 3 was used as previously described ([Leib et al., 2000]; [Perny et al., 2017]). […] Bacteria were diluted to the desired optical density (OD570 nm) and the final inoculum concentration was determined by plating serial dilutions on Columbia sheep blood agar. […]
Dividing cells were labeled with, 5-ethyl-2′-deoxyuridine (EdU) and detected with Click-it Plus kit (Life Technologies). […]
Image processing was performed with the open-source image processing software FIJI, version 2.0 ([Schindelin et al., 2012]). Hair cells were quantified by counting Pou4f3 or Myo7a positive cells of the organ of Corti at three random microscopic fields for each cochlear region (base, middle, and apex) covering in total at least 1,200 μm. The number of hair cells (IHCs and OHCs) is expressed as unit per 100 μm. […]

The mark [3] stands for this setting: female, Hartley, guinea pig, perilymph, other: transtympanic (middle ear injection), 870 μg/kg, 10% POX vehicle, transtympanic.

“And” between values parts separate entries of the source, which are not always exact repeats. Identical values can stand only once.

With `COc1ccc2c(c1)N1CCC(C)(C)C1=CC(=O)[C@H]2NC(=O)[C@H](C)NC(=O)CCC(F)(F)F` [CPD3], the “Time at which mean maximal perilymph concentration was reached” value in series [1] (10% POX and 20% POX formulations, post-dosing) came to 0.5 h. Besides, the “Mean maximal perilymph concentration at 0.5 h post-dosing” value in series [1] (10% POX vehicle, transtympanic) was 85,489 ng/ml and 183 μM. The Perilymph concentrations quantifiable entry in series [1] (10% POX, sampled at 0.5, 1 and 6 h post-dosing) is “quantifiable at all time points”. Also, in series [1] (setting [3]), the concentration at 1 h was 12900 ng/mL and 27.7 µM; the concentration at 6 h is 12700 ng/mL and 27.1 µM. In series [1] (female, Hartley, guinea pig, perilymph, other: transtympanic (middle ear injection), 870 μg/kg, single transtympanic dose 3.4 mg/ml, 70 μl, span over the vehicle formulations (10% POX, 20% POX, HA, PEG400)), the concentration at 48 h was 485 ng/mL to 1000 ng/mL and 1 µM to 2.1 µM. In series [2] (4 days treatment after 2 h exposure), the “OHCs after S. pneumoniae damage compared to DMSO” value was “more OHCs in all turns of the organ of Corti”. The “Pou4f3/Sox2 double-positive cells after S. pneumoniae damage” value in series [2] (apical domain only, not statistically significant) was “increased occurrence”.
